Reference: patent US9371307B2, “Serine protease inhibitors” (THE JOHNS HOPKINS UNIVERSITY, priority 2011, dated 2016)
Where two headings read alike, the source gives them in different places.

What was measured:
Assay type in all cases: biochemical
human chymase = target: T1, human chymase (Homo sapiens, UniProt P23946); assay: Inhibition of chymase (Ki; Lineweaver-Burk double reciprocal plots)
T1 construct: In its active form within the secretory granules of mast cells, human chymase contains 226 amino acid residues
T1 sequence (P23946 22-247): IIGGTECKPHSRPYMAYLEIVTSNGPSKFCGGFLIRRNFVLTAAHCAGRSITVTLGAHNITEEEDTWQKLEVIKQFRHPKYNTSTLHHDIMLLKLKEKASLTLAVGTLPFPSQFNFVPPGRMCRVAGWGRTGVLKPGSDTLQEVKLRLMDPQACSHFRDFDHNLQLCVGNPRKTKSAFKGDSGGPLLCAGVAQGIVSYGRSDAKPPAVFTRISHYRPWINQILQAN

DPPIV = DPPIV (Homo sapiens, UniProt P27487); assay: Selectivity of chymase inhibitors against DPPIV; conditions: ratio of Ki enzyme/Ki chymase
Thrombin = Thrombin (Homo sapiens, UniProt P00734); assay: Selectivity of chymase inhibitors against thrombin; conditions: ratio of Ki enzyme/Ki chymase
Procedure: (§1) As provided in Table 1, hereinabove in Example 2, selectivity was tested by measuring the inhibitory activity of ef-rs-03-075 and analogs against other serine proteases, including thrombin, trypsin, and tryrptase.

Tryptase = Tryptase (Homo sapiens, UniProt Q15661); assay: Selectivity of chymase inhibitors against tryptase; conditions: ratio of Ki enzyme/Ki chymase
Procedure: as §1

Trypsin = assay: Selectivity of chymase inhibitors against trypsin; conditions: ratio of Ki enzyme/Ki chymase
Procedure: as §1

DPPIV, sequence (P27487 whole entry, species assumed): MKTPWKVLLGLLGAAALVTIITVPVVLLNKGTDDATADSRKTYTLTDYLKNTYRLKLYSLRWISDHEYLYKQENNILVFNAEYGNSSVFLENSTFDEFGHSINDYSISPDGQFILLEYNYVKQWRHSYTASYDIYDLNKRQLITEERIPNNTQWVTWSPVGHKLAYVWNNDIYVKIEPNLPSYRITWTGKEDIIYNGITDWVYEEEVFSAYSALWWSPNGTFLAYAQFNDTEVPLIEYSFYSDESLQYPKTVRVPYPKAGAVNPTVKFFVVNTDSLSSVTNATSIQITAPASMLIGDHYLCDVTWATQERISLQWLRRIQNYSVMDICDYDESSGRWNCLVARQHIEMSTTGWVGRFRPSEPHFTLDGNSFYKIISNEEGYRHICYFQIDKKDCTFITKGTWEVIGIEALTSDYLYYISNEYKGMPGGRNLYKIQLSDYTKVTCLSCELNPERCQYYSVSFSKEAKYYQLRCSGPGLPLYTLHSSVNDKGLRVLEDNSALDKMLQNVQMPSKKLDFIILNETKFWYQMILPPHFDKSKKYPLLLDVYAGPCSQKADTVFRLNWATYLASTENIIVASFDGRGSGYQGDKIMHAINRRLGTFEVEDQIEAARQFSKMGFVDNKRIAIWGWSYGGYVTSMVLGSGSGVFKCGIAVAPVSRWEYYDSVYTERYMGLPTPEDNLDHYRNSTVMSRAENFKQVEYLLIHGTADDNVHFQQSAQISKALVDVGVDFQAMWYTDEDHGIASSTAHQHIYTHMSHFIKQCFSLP
Tryptase, sequence (Q15661 31-275): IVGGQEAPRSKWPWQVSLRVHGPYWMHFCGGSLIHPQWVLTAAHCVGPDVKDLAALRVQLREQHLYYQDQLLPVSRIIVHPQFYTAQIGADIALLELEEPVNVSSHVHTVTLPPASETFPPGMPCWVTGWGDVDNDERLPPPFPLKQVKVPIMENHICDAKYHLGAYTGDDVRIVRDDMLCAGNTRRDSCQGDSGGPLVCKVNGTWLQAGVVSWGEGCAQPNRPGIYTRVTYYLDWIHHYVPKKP

## O=S(=O)(/C=C/c1cccc(Br)c1)N(Cc1ccccc1)c1cccc(Cl)c1 [ef-rs-03-015-P2]
Human chymase; read-out: Chymase Ki
  Ki: 1580 ± 130 nM
DPPIV
  Selectivity of chymase inhibitors: DPPIV: >100
Thrombin
  Selectivity of chymase inhibitors: Thrombin: >200
Tryptase
  Selectivity of chymase inhibitors: Tryptase: >260

## O=S(=O)(/C=C/c1cccc(Cl)c1)N(Cc1ccccc1)c1cccc(Cl)c1 [ef-rs-03-019-P4]
Human chymase; read-out: Chymase Ki
  Ki: 1320 ± 280 nM
DPPIV
  Selectivity of chymase inhibitors: DPPIV: >100
Thrombin
  Selectivity of chymase inhibitors: Thrombin: >200
Tryptase
  Selectivity of chymase inhibitors: Tryptase: >275

## O=S(=O)(/C=C/c1cccc(Cl)c1)N(Cc1ccsc1)c1cccc(Cl)c1 [ef-rs-03-038-P1]
Human chymase; read-out: Chymase Ki
  Ki: 1570 ± 390 nM
DPPIV
  Selectivity of chymase inhibitors: DPPIV: 34
Thrombin
  Selectivity of chymase inhibitors: Thrombin: >60
Tryptase
  Selectivity of chymase inhibitors: Tryptase: >240

## O=S(=O)(/C=C/c1cccc(Br)c1)N(Cc1ccsc1)c1cccc(Cl)c1 [ef-rs-03-039-P1]
Human chymase; read-out: Chymase Ki
  Ki: 1340 ± 390 nM
DPPIV
  Selectivity of chymase inhibitors: DPPIV: 17
Thrombin
  Selectivity of chymase inhibitors: Thrombin: >60
Tryptase
  Selectivity of chymase inhibitors: Tryptase: >310

## O=S(=O)(/C=C/c1cccc(Cl)c1)N(Cc1cccc(Cl)c1)c1cccc(Cl)c1 [ef-rs-03-075, (E)-N-(3-chlorobenzyl)-N,2-bis(3-chlorophenyl)ethenesulfonamide]
Human chymase; double reciprocal plot of substrate concentration vs. reaction velocity, various inhibitor concentrations (FIG. 4)
  inhibitory mechanism: competitive inhibition
Human chymase; read-out: Chymase Ki
  Ki: 959 ± 42 nM
Human chymase; value given in the description text as 'high affinity', read-out: affinity
  Ki: 544 nM
DPPIV
  Selectivity of chymase inhibitors: DPPIV: 37
Thrombin
  Selectivity of chymase inhibitors: Thrombin: >320
Trypsin
  Selectivity of chymase inhibitors: Trypsin: >110
Tryptase
  Selectivity of chymase inhibitors: Tryptase: >410

## Cc1cccc(CN(c2cccc(Cl)c2)S(=O)(=O)/C=C/c2cccc(Cl)c2)c1 [ef-rs-08-049]
Human chymase; read-out: Chymase Ki
  Ki: 1110 ± 220 nM
DPPIV
  Selectivity of chymase inhibitors: DPPIV: 170
Thrombin
  Selectivity of chymase inhibitors: Thrombin: 13
Tryptase
  Selectivity of chymase inhibitors: Tryptase: >350

## O=S(=O)(/C=C/c1cccc(Cl)c1)N(Cc1cccc(Br)c1)c1cccc(Cl)c1 [ef-rs-08-050]
Human chymase; read-out: Chymase Ki
  Ki: 1220 ± 190 nM
DPPIV
  Selectivity of chymase inhibitors: DPPIV: 40
Thrombin
  Selectivity of chymase inhibitors: Thrombin: 45
Tryptase
  Selectivity of chymase inhibitors: Tryptase: >320

## O=S(=O)(/C=C/c1cccc(Cl)c1)N(Cc1ccc(Cl)c(Cl)c1)c1cccc(Cl)c1 [ef-rs-08-051]
Human chymase; read-out: Chymase Ki
  Ki: 903 ± 150 nM
DPPIV
  Selectivity of chymase inhibitors: DPPIV: 16
Thrombin
  Selectivity of chymase inhibitors: Thrombin: 70
Tryptase
  Selectivity of chymase inhibitors: Tryptase: >110

## O=S(=O)(/C=C/c1cccc(Cl)c1)N(Cc1cccc(Cl)c1)c1cccc(OCc2cccc(Cl)c2)c1 [ef-rs-08-052]
Human chymase; read-out: Chymase Ki
  Ki: 978 ± 87 nM
DPPIV
  Selectivity of chymase inhibitors: DPPIV: 10
Thrombin
  Selectivity of chymase inhibitors: Thrombin: >75
Tryptase
  Selectivity of chymase inhibitors: Tryptase: >100

## O=S(=O)(/C=C/c1cccc(Cl)c1)N(Cc1ccc(Cl)cc1)c1cccc(Cl)c1 [ef-rs-08-056]
Human chymase; read-out: Chymase Ki
  Ki: 1260 ± 200 nM
DPPIV
  Selectivity of chymase inhibitors: DPPIV: 80
Thrombin
  Selectivity of chymase inhibitors: Thrombin: 20
Tryptase
  Selectivity of chymase inhibitors: Tryptase: >310

## O=S(=O)(/C=C/c1cccc(Cl)c1)N(Cc1cccc(F)c1)c1cccc(Cl)c1 [ef-rs-08-057]
Human chymase; read-out: Chymase Ki
  Ki: 1190 ± 120 nM
DPPIV
  Selectivity of chymase inhibitors: DPPIV: 70
Thrombin
  Selectivity of chymase inhibitors: Thrombin: >50
Tryptase
  Selectivity of chymase inhibitors: Tryptase: >80
